Data as given in ChEMBL document CHEMBL1201862, “PubChem BioAssay data set” (2004).
The source made the active and inactive calls.

Experiments:
[1] = ZM109 Env clade C HIV-1 fusion inhibitors, dose response, HeLa effector, CEM target cells, luciferase, cherry-pick (AID 652058); format: functional, cell-based
[2] = inhibitors of clade B AD8 Env fusion, dose response, cell-based, cherry-pick (AID 652062); format: functional;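 further: luciferase signal from cell-cell fusion driven by HIV-1 clade B AD8 Env; potency is for inhibitors of fusion seen as a drop in luminescence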
[3] = inhibitors of HIV Env-driven cell fusion, dose response, cherry-pick (AID 652057); format: functional, cell-based
[4] = off-target signal loss in HeLa-CEM21 co-culture – HeLa F-luc CTL cells, cherry-picked, counter-screen for HIV-1 Env fusion inhibitor project, dose response (AID 652040); format: functional, cell-based;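 further: potency for signal decrease marking cytotoxic or nonspecific inhibition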
[5] = molecular target: T1, Long-chain-fatty-acid--AMP ligase FadD28 (Mycobacterium tuberculosis, UniProt P9WQ59); test: Fluorescence polarization aasay to screen for inhibitors that compete for the binding of FadD28 to a bisubstrate Measured in Biochemical System Using Plate Reader - 2147-01_Inhibitor_Dose_CherryPick_Activity.; format: functional, Mycobacterium tuberculosis H37Rv
T1 sequence (P9WQ59 whole entry): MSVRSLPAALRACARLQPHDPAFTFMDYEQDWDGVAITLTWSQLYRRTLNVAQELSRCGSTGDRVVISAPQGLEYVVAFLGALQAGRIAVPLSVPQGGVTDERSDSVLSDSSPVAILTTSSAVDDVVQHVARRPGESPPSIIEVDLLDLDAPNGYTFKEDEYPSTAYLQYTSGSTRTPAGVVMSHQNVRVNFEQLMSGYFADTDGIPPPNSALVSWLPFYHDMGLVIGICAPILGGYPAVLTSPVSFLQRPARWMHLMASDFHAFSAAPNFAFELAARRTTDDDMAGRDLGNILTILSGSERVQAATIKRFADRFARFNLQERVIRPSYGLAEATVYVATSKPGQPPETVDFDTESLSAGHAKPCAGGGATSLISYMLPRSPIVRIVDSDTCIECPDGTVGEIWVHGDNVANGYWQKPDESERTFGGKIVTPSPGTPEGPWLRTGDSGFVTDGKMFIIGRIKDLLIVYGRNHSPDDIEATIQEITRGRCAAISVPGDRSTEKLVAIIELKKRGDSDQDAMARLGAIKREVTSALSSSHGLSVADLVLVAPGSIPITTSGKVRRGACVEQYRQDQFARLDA

[6] = intracellular Trypanosoma cruzi inhibitors in host cells – cell-based, plate reader, cherry-pick samples, set 3, dose response (AID 651818); format: functional;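 further: compounds incubated with infected cells for about four days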
[7] = miR-122 activators in hepatoma reporter cells, dose response, cell-based, Huh7 psiCHECK-miR122, Renilla luciferase, cherry-picked (AID 651956); format: functional;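 further: huh7 hepatoma cells stably carrying a psiCHECK-2 miR-122 sensor plasmid; renilla luciferase signal reporting endogenous miR-122 activity after 48 h compound exposure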
[8] = Luminescence Cell-Based Dose Retest to Confirm Inhibitors of Cancer Stem Cells. [Related pubchem assays (depositor defined):AID2717, AID2721]; format: functional; details: Homo sapiens
Protein RecA = molecular target: T2, Protein RecA (Mycobacterium tuberculosis, UniProt P9WHJ3); test: Fluorescence Cell-Free Homogeneous Dose Retest to Identify Inhibitors of RecA-Intein Splicing Activity. [Related pubchem assays (depositor defined):AID2097, AID2223, AID489010, AID492950]; format: functional
T2 sequence (P9WHJ3 whole entry): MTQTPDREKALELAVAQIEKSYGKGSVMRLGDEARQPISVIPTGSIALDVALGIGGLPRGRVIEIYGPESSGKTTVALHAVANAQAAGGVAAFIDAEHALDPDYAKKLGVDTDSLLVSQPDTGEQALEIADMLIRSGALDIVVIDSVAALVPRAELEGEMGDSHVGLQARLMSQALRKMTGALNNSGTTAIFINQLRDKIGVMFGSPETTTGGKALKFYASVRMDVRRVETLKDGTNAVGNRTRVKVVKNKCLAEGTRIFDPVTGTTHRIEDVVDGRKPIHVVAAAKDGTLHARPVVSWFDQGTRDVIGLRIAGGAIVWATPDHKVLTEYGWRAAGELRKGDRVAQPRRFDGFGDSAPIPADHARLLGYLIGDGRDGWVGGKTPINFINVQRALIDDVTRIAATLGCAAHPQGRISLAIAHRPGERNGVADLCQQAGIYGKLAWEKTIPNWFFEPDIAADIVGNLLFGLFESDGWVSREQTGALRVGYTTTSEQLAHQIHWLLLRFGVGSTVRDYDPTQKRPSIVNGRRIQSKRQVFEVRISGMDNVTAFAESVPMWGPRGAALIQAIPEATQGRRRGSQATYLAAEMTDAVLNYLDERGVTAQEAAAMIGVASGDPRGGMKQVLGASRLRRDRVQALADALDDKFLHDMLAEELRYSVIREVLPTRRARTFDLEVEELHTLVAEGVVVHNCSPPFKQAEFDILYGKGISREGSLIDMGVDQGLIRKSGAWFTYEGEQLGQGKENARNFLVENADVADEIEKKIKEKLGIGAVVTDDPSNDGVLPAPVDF

[9] = molecular target: T3, Replicative DNA helicase DnaB (Mycobacterium tuberculosis, UniProt P9WMR3); test: DnaB intein splicing inhibitors, dose response, biochemical, cell-free fluorescence (AID 449749); format: functional
T3 sequence (P9WMR3 whole entry): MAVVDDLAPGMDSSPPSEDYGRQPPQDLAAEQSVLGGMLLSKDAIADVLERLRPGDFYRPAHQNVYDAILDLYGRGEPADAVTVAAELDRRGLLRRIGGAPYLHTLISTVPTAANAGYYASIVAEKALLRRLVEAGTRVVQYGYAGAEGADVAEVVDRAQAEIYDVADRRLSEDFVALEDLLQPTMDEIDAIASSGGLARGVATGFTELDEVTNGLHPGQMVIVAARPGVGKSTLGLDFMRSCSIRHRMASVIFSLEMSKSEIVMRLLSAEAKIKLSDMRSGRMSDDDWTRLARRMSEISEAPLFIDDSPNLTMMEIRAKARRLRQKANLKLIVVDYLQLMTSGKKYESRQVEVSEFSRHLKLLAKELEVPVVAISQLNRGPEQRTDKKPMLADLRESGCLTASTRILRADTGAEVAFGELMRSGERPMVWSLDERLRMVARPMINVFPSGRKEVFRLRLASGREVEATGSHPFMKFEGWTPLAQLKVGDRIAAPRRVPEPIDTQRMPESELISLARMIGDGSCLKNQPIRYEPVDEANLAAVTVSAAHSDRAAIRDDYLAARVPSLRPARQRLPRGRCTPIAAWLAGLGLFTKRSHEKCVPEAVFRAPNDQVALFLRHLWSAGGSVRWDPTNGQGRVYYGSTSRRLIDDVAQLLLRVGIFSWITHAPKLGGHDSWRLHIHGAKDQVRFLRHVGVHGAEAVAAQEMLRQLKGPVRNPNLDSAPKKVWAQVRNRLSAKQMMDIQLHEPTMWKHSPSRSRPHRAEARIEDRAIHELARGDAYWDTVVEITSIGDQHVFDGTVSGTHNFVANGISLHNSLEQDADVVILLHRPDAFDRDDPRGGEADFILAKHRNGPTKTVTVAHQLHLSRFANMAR

[10] = molecular target: T4, Sentrin-specific protease 8 (Homo sapiens, UniProt Q96LD8); format: functional
T4 sequence (Q96LD8 whole entry): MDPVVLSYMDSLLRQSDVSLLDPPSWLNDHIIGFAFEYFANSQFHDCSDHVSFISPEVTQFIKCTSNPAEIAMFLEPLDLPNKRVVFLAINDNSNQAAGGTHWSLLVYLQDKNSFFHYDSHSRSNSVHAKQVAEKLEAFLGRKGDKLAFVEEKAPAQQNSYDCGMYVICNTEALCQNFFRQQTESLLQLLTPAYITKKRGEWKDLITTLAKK

[11] = molecular target: T4, Sentrin-specific protease 8; format: functional; remark: listed apart in the source
[12] = molecular target: T5, Ubiquitin-conjugating enzyme E2 N (Homo sapiens, UniProt P61088); format: functional;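 further: Dose-response confirmation in a TR-FRET assay detecting UBC13-driven polyubiquitin chain formation, inhibition measured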
T5 sequence (P61088 whole entry): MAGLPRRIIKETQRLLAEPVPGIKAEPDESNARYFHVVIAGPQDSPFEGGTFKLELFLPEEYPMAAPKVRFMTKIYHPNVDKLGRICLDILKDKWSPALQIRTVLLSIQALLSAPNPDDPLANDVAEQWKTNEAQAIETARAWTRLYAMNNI

[13] = inhibitors of firefly luciferase expression or activity, dose response, H4 neuroglioma cells, luminescence (AID 1990); format: functional, cell-based
[14] = Luminescence Cell-Based Dose Response HTS to Identify Inhibitors of 5'UTR Stem-Loop Driven Prion Protein mRNA Translation in H4 Neuroglioblastoma Cells. [Related pubchem assays: 1827 (Project Summary), 1813 (Primary HTS)]; format: functional
[15] = molecular target: T6, DNA repair protein RAD52 homolog (Homo sapiens, UniProt P43351); format: functional, biochemical
T6 sequence (P43351 whole entry): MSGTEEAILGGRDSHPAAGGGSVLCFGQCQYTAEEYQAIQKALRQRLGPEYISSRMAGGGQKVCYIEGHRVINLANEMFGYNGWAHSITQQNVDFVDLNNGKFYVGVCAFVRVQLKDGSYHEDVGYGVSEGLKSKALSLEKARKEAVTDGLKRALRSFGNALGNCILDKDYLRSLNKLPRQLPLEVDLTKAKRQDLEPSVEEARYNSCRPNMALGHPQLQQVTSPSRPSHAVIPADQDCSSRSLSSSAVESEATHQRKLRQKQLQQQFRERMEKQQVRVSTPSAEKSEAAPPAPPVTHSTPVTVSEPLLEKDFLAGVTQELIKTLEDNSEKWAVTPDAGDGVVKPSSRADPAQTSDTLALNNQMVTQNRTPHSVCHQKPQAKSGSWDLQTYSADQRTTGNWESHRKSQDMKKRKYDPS

[16] = inhibitors of SNCA 5'UTR-driven reporter translation, confirmation, H4 neuroglioma cells, luminescence (AID 1988); format: functional, cell-based

## O=S1(=O)c2c(cccc2N2CCCCC2)O[C@H](COCc2ccccc2)CN1C1CC1
[1]
  AC50: 4.61 µM (active)
[2]
  AC50: 22.4 µM (active)
[3]
  AC50: 6.53 µM (active)
[4]
  AC50: 16.3 µM (active)

## Cc1ccc(NC(=O)CN2C(=O)S/C(=C\c3cc(C)n(-c4ccc(C(=O)O)cc4)c3C)C2=O)cc1
[5]
  AC50: 2.97 µM (active)

## Cc1noc(C)c1S(=O)(=O)Nc1ccc2c(c1)CC(=O)N([C@H](C)CO)C[C@H](C)[C@H](CN(C)Cc1ccc(C(=O)Nc3ccccc3N)cc1)O2
[6]
  AC50: 2.36 µM (active)

## C[C@@H]1CN([C@H](C)CO)C(=O)Cc2cc(NC(=O)Nc3cccc4ccccc34)ccc2O[C@@H]1CN(C)Cc1ccc2c(c1)OCO2
[6]
  AC50: 2.61 µM (active)

## O=C(C[C@@H]1C/C=C/CC[C@@H](Cc2ccc(F)cc2)C(=O)O[C@H](c2ccccc2)CNC1=O)NCCO
[1]
  AC50: 5.4 µM (active)
[2]
  AC50: 6.44 µM (active)
[3]
  AC50: 5.18 µM (active)
[4]
  AC50: 6.16 µM (active)

## COCC(=O)N(C)C[C@H]1Oc2cc(C#Cc3cccnc3)ccc2S(=O)(=O)N([C@@H](C)CO)C[C@@H]1C
[7]
  AC50: 32.8 µM (active)

## COc1ccc(-c2cc(=O)n(-c3ccc([N+](=O)[O-])cc3)[nH]2)cc1
[8]
  AC50: 10 µM (active)
Protein RecA
  EC50: 2.42 µM (active)
[9]
  AC50: 2.75 µM (active)
[10]
  IC50: 17.6 µM (active)
[11]
  IC50: 25.2 µM (active)

## CCOc1cc(/C=C2/NC(=O)N(CC(=O)Nc3cccc(C)c3)C2=O)ccc1O
[5]
  AC50: 51.7 µM (active)

## C[C@@H]1CCCCO[C@@H](CN(C)C(=O)Nc2ccc(C(F)(F)F)cc2)[C@@H](C)CN([C@H](C)CO)C(=O)c2cc(NC(=O)Nc3ccccc3)ccc2O1
[6]
  AC50: 3.75 µM (active)

## C/C(NNC(=O)c1ccccc1O)=C1/C(=O)NC(=O)N(C2CCCCC2)C1=O
[5]
  AC50: 24.7 µM (active)

## CN(C)CCn1cnc2c(c1=N)C(c1ccccc1)c1ccc3ccccc3c1O2 (centres undefined)
[12]
  IC50: > 20 µM (inactive)
[13]
  EC50: > 120 µM (not active)
[14]
  EC50: 0.18 µM (active)
[15]
  AC50: 23.6 µM (active)
[16]
  EC50: > 120 µM (not active)

## COc1ccc(NC(=O)Nc2ccc3c(c2)C(=O)N([C@H](C)CO)C[C@H](C)[C@@H](CN(C)Cc2ccc(Cl)c(Cl)c2)OCCCC[C@@H](C)O3)cc1
[6]
  AC50: 4.1 µM (active)

## CC(C)NS(=O)(=O)c1ccc(OCC(=O)N2CCN(Cc3ccc4c(c3)OCO4)CC2)c(Cl)c1
[1]
  AC50: 1.86 µM (active)
[2]
  AC50: 13.4 µM (active)
[4]
  AC50: 29.7 µM (active)
